Source: US11046714B2, “2,2-difluorodioxolo A2A receptor antagonists” (Merck Sharp & Dohme Corp., priority 2013, dated 2021)
pKi: −log10 of the molar value.

These compounds were tested against human A2A receptor (Homo sapiens (Human), UniProt P29274) (assay: competition binding assay using Scintillation Proximity technology). Conditions: membranes from CHO-K1 cells expressing the human A2a receptor; 2.0 nM tritiated compound; Cheng-Prusoff.
Outline: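 Membranes (1.0 μg) from CHO-K1 cells expressing human A2A were treated with adenosine deaminase, then incubated 1 h at room temperature with compound (3000–0.15 nM) and 2.0 nM tritiated SCH-type ligand on WGA SPA beads in PBS plus 10 mM MgCl2. Nonspecific binding was defined with 1 μM CGS 15943. Ki was derived from EC50 via Cheng-Prusoff.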

Chain of human A2A receptor (P29274 whole entry): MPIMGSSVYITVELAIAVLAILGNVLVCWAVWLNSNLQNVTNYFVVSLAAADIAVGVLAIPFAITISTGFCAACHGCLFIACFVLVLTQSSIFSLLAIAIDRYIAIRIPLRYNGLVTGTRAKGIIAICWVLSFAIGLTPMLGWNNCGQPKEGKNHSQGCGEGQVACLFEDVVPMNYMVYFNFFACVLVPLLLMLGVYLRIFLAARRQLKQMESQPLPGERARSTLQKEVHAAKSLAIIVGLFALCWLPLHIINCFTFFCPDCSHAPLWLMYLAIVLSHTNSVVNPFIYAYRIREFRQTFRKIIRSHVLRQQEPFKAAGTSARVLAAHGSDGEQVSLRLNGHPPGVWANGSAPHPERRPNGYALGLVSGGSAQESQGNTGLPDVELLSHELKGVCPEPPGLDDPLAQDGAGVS

`CC(F)(F)CN1CC(Cc2nc3c4ccc5c(c4nc(N)n3n2)OC(F)(F)O5)C1` [Example 152, 8-{[1-(2,2-difluoropropyl)azetidin-3-yl]methyl}-2,2-difluoro[1,3] dioxolo[4,5-h][1,2,4]triazolo[1,5-c]quinazolin-5-amine] was tested. Which pKi did it give?
Its pKi is 8.26.

How did the pKi turn out when `Nc1nc2c3c(ccc2c2nc(CC4CN(c5ccccn5)C4)nn12)OC(F)(F)O3` [Example 153, 2,2-difluoro-8-[(1-pyridin-2-ylazetidin-3-yl)methyl][1,3] dioxolo[4,5-h][1,2,4]triazolo [1,5-c]quinazolin-5-amine] was run?
The pKi was 6.77.

How did the pKi turn out when `Nc1nc2c3c(ccc2c2nc(C[C@H](N)C4CC4)nn12)OC(F)(F)O3` [Example 158, 8-[(2S)-2-amino-2-cycloproplethyl]-2,2-difluoro[1,3]dioxolo[4,5-h][1,2,4]triazolo[1,5-c]quinazolin-5-amine] was run?
The pKi was 7.72.

With `Nc1nc2c3c(ccc2c2nc(C[C@@H](N)C4CC4)nn12)OC(F)(F)O3` [Example 159, 8-[(2R)-2-amino-2-cyclopropylethyl]-2,2-difluoro[1,3]dioxolo[4,5-h][1,2,4]triazolo[1,5-c]quinazolin-5-amine] as the compound, how does the pKi read?
Its pKi is 6.74.

With `Nc1nc2c3c(ccc2c2nc([C@H]4CC[C@H](N5CCCC(F)(F)C5)C4)nn12)OC(F)(F)O3` [Example 160, 8-[(1S,3S)-3-(3,3-difluoropiperidin-1-yl)cyclopentyl]-2,2-difluoro[1,3]dioxolo[4,5-h][1,2,4]triazolo[1,5-c]quinazolin-5-amine] as the compound, how does the pKi read?
Its pKi is 7.80.

`Nc1nc2c3c(ccc2c2nc([C@H]4CC[C@@H](N5CCCC(F)(F)C5)C4)nn12)OC(F)(F)O3` [Example 161, 8-[(1S,3R)-3-(3,3-difluoropiperidin-1-yl)cyclopentyl]-2,2-difluoro[1,3]dioxolo[4,5-h][1,2,4]triazolo[1,5-c]quinazolin-5-amine] was tested. Which pKi did it give?
Its pKi is 7.49.
